A short description of the data set: xn = mol fraction of the nth substance listed.

± gives the uncertainty stated by the source.

As for `CCCC[n+]1ccn(C)c1.F[P-](F)(F)(F)(F)F` + CCCC[n+]1ccn(C)c1.O=S(=O)([O-])C(F)(F)F, where the note is “318.15 K, 100 kPa, x1 = 1”, the viscosity is given as 87.7 ± 2.4 mPa·s.
`CCOC(C)=O` + CCCC[n+]1ccn(C)c1.O=S(=O)([O-])C(F)(F)F: the viscosity (298.15 K, 100 kPa, x2 = 0) is on record as 0.42 ± 0.08 mPa·s.
Take `CCCCCCO` + CCCC[n+]1ccn(C)c1.O=[N+]([O-])[O-]: the viscosity came to 5.37 ± 0.43 mPa·s (293.15 K, 100 kPa, x2 = 0); 3.94 ± 0.32 mPa·s (303.15 K, 100 kPa, x2 = 0); 2.95 ± 0.24 mPa·s (313.15 K, 100 kPa, x2 = 0); 2.26 ± 0.18 mPa·s (323.15 K, 100 kPa, x2 = 0).
`CC#N` + CCCC[n+]1ccn(C)c1.[Cl-] came in with a viscosity (308.15 K, 101 kPa, x1 = 1) of 0.31 mPa·s.
Under “288.15 K, 101 kPa, x1 = 1”, `CN(C)C=O` + CCCC[n+]1ccn(C)c1.[Cl-] yielded a viscosity of 0.94 ± 0.11 mPa·s.
With `CCCC[n+]1ccn(C)c1.O=S(=O)([N-]S(=O)(=O)C(F)(F)F)C(F)(F)F` + CCCO, the electrical conductivity runs as follows: (298 K, 100 kPa, x1 = 0.02) 0.137 ± 0.0014 S/m; (298 K, 100 kPa, x1 = 0.06) 0.348 ± 0.0035 S/m; (298 K, 100 kPa, x1 = 0.07) 0.3949 ± 0.0039 S/m; (298 K, 100 kPa, x1 = 0.1) 0.5104 ± 0.0051 S/m; (298 K, 100 kPa, x1 = 0.2) 0.7444 ± 0.0074 S/m; (298 K, 100 kPa, x1 = 0.3) 0.8144 ± 0.0081 S/m. The electrical conductivity by setting is: (298 K, 100 kPa, x1 = 0.4) 0.804 ± 0.08 S/m; (298 K, 100 kPa, x1 = 0.5) 0.7509 ± 0.0075 S/m; (298 K, 100 kPa, x1 = 0.6) 0.686 ± 0.0069 S/m; (298 K, 100 kPa, x1 = 0.7) 0.6239 ± 0.0062 S/m; (298 K, 100 kPa, x1 = 0.8) 0.5324 ± 0.0053 S/m; (298 K, 100 kPa, x1 = 0.9) 0.461 ± 0.046 S/m. Moreover, the viscosity was determined as 2.742 ± 0.016 mPa·s (298 K, 100 kPa, x1 = 0.05); 3.685 ± 0.024 mPa·s (298 K, 100 kPa, x1 = 0.1); 5.689 ± 0.047 mPa·s (298 K, 100 kPa, x1 = 0.1996); 8.179 ± 0.084 mPa·s (298 K, 100 kPa, x1 = 0.3005); 11.32 ± 0.14 mPa·s (298 K, 100 kPa, x1 = 0.3996); 15.01 ± 0.22 mPa·s (298 K, 100 kPa, x1 = 0.4995). Besides, the viscosity reads like this: (298 K, 100 kPa, x1 = 0.5478) 17.08 ± 0.27 mPa·s; (298 K, 100 kPa, x1 = 0.6957) 24.54 ± 0.47 mPa·s; (298 K, 100 kPa, x1 = 0.8024) 32.15 ± 0.69 mPa·s; (298 K, 100 kPa, x1 = 0.9018) 40.15 ± 0.95 mPa·s; (298 K, 100 kPa, x1 = 1) 49.7 ± 1.3 mPa·s.
With `CC#N` + CCC[N+]1(C)CCCC1.O=S(=O)([N-]S(=O)(=O)C(F)(F)F)C(F)(F)F, the viscosity (278.15 K, 101 kPa, x2 = 0) came to 0.411 ± 0.017 mPa·s; the viscosity (288.15 K, 101 kPa, x2 = 0) was 0.38 ± 0.016 mPa·s; the viscosity (298.15 K, 101 kPa, x2 = 0) came to 0.346 ± 0.015 mPa·s; the viscosity (308.15 K, 101 kPa, x2 = 0) is on record as 0.311 ± 0.013 mPa·s; the viscosity (318.15 K, 101 kPa, x2 = 0) was 0.279 ± 0.012 mPa·s; the viscosity (328.15 K, 101 kPa, x2 = 0) is listed as 0.248 ± 0.011 mPa·s.
`CCCC[n+]1cccc(C)c1.O=S(=O)([N-]S(=O)(=O)C(F)(F)F)C(F)(F)F` + CCO: the electrical conductivity (298.15 K, 101.3 kPa, x2 = 0) stood at 0.273 ± 0.005 S/m; the electrical conductivity (298.15 K, 101.3 kPa, x2 = 0.4364) came out at 0.642 ± 0.013 S/m; the electrical conductivity (298.15 K, 101.3 kPa, x2 = 0.6597) came out at 0.93 ± 0.019 S/m; the electrical conductivity (298.15 K, 101.3 kPa, x2 = 0.8246) was 1.07 ± 0.021 S/m.

A word on the viscosity: it is the internal friction of a fluid under shear. Low readings indicate easy flow, high ones sluggish flow.

The values are drawn from the CheMixHub ionic liquid set.
